“Also recorded” adds a separate entry of the source.
Assays:
Format in all cases: cell-based, human
[1] = tested on: OSCC; experiment: Cell cycle analysis by flow cytometry after caffeine and irradiation; conditions: following irradiation
Experimental: Cell Cycle Analysis by Flow Cytometry. […] These cells were washed with phosphate-buffered saline (PBS), and fixed with 70% ethanol. The cells were then treated with 80 μg/ml RNase A and 50 μg/ml propidium iodide (Invitrogen-Molecular Probes, Carlsbad, Calif.) for 45 min at 37° C. The stained cells were analyzed using a Coulter Epics XL Flow Cytometer in the UPCI Flow Cytometry Facility.

[2] = tested on: UPCI:SCC104; experiment: Cell cycle analysis by flow cytometry; conditions: 1 mM or 5 mM caffeine 1 h prior to 5 Gy IR
Experimental: Cell Cycle Analysis by Flow Cytometry. […] These cells were washed with phosphate-buffered saline (PBS), and fixed with 70% ethanol. The cells were then treated with 80 μg/ml RNase A and 50 μg/ml propidium iodide (Invitrogen-Molecular Probes, Carlsbad, Calif.) for 45 min at 37° C. The stained cells were analyzed using a Coulter Epics XL Flow Cytometer in the UPCI Flow Cytometry Facility. SiRNA Transfection. ATR or CHEK1 inhibitions were carried out using the respective siRNAs for a specific knockout. RNA interference of ATR and CHEK1 was performed using Smartpool ATR and CHEK1 duplexes respectively, obtained from Dharmacon (Lafayette, Colo.). Nonspecific (scrambled) control duplexes (Dharmacon) were used for nonspecific siRNA treatment. The duplexes were reconstituted in 1×DNA-free RNA re-suspension buffer provided by Dharmacon and aliquoted according to the manufacturer's instructions. For transfection, the OSCC cell lines were seeded in 60 mm dishes or T25 flasks and transfected with siRNA duplexes using Lipofectamine 2000 (Invitrogen) according to the manufacturer's instructions. The individual siRNA duplex sequences are enumerated in Appendix B. The final working siRNA concentration achieved was between 90-100 nM. […]

[3] = tested on: UPCI:SCC084; experiment: Clonogenic cell survival assay
Experimental: (§1) Clonogenic Cell Survival Assay. To assess cell survival in response to ionizing radiation, clonogenic survival assays were performed. Two thousand cells were seeded in 60 mm Petri dishes and allowed to adhere overnight. […] The culture medium was replaced at the end of 7 days. Untreated cells cultured in parallel were used to determine relative plating efficiency. After 12 days, the cells were fixed with 70% ethyl alcohol and stained with Giemsa (Sigma, St. Louis, Mo.) and the number of colonies was assessed. A colony was defined as a cluster of ≧50 cells, having formed from a single cell. All experiments were performed in triplicate, and the error reported as one standard deviation from the mean.

[4] = tested on: UPCI:SCC104; experiment: Clonogenic cell survival assay
Experimental: as §1
SiRNA Transfection. ATR or CHEK1 inhibitions were carried out using the respective siRNAs for a specific knockout. RNA interference of ATR and CHEK1 was performed using Smartpool ATR and CHEK1 duplexes respectively, obtained from Dharmacon (Lafayette, Colo.). Nonspecific (scrambled) control duplexes (Dharmacon) were used for nonspecific siRNA treatment. The duplexes were reconstituted in 1×DNA-free RNA re-suspension buffer provided by Dharmacon and aliquoted according to the manufacturer's instructions. For transfection, the OSCC cell lines were seeded in 60 mm dishes or T25 flasks and transfected with siRNA duplexes using Lipofectamine 2000 (Invitrogen) according to the manufacturer's instructions. The individual siRNA duplex sequences are enumerated in Appendix B. The final working siRNA concentration achieved was between 90-100 nM. We used cells treated with no vector (untreated), empty vector (mock-treated), cells transfected with a nonspecific siRNA, and a specific ATR or CHEK1 siRNA for all of our experiments. At the end of 48 h post-transfection, appropriate treatments (ionizing radiation or aphidicolin treatment) were carried out as described earlier.

[5] = cell lines with an upregulated ATR-CHEK1 pathway including GM09607 (AT cells)
[6] = different doses of caffeine, compared to UPCI:SCC066, 105 and control NHOK

SMILES: Cn1c(=O)c2c(ncn2C)n(C)c1=O [caffeine]
- sensitivity to caffeine (cell cycle profile) ([1]; cell lines with an intact G1 checkpoint and normal ATR-CHEK1 expression): did not demonstrate any sensitivity
- accumulation of cells in the S and G2M phases [1, 5]: clearly reduced
- sub-G0 population (dead cells) [1, 5]: increased
- G2M accumulation [2]: dose dependent reduction
- sub G0 peak (dead cells) [2]: increase
- reduction in colony survival ([3]; 0.5 mM caffeine, UPCI:SCC084, absence of any DNA damaging agents): > 50%
- colony survival ([3]; 1 mM caffeine, UPCI:SCC084): complete absence of survival; also recorded: Complete inhibition of colony formation
- sensitivity to caffeine (clonogenic cell survival) [3, 6]: increased sensitivity
- reduction in colony survival ([4]; 0.5 mM caffeine, UPCI:SCC104, absence of any DNA damaging agents): > 50%
- colony survival ([4]; 1 mM caffeine, UPCI:SCC104): complete absence of survival
- sensitivity to caffeine (clonogenic cell survival) [4, 6]: increased sensitivity

From patent US9080216B2, “Genetic changes in ATM and ATR/CHEK1 as prognostic indicators in cancer” (University of Pittsburgh-of the CommonWealth System of …, priority 2007, dated 2015)
